Where two headings read alike, the source gives them in different places.
Molecular target: T1, α5β3γ2 GABAA receptors (Ltk cell membranes) (Homo sapiens, UniProt P18507+P31644)
T1 construct: membranes
Assay: Binding activity of test compounds on GABAAR: inhibition of [3H]Ro15-1788 binding
Procedure: Tissue culture and Membrane Preparation: The binding was performed on Ltk cells stably expressing GABAA receptors: α1β1γ2, α2β3γ2, α3β3γ2 and α5β3γ2 (provided by Merck Co., NJ, USA). Cells were seeded in 100 mm culture plates in DMEM/F12 medium containing 10% serum and antibiotics in 5% CO2 and allowed to grow for 1-2 days. GABAAR expression was then induced by dexamethasone as follows: 0.5 μM for 1 day for α5 containing and 2μM for 3 days for α1, α2 and α3 containing GABAARs. After induction, cells were collected by scraping into Dulbecco's Phosphate buffered saline (DPBS, pH 7.4, Invitrogen, Carlsbad, Calif., USA) and centrifuged at 150×g for 10 min. The pellet was washed twice by re-suspension and centrifugation. The cell pellets from at least 5 different preps were combined, suspended in the binding assay buffer (50 mM KH2P4; 1 mM EDTA; 0.2 M KCl, pH 7.4) and membranes prepared by sonication (3-5 times, 30 sec) using Branson Sonifier 150 (G.Heinmann, Germany). Protein content was determined using BCA assay (Bio-Rad Labs, Reinach, Switzerland) with Bovine Serum Albumin (Sigma Aldrich, St. Louis, Mo., USA) as the standard. Aliquots were prepared and stored at −20° C. for further use in binding assays.
Ligand Binding: Saturation binding curves were obtained by incubating membranes with increasing concentrations (0.01-8 nM) of [^3H]Ro15-1788 (Flumazepil, 75-85 Ci/mmol, PerkinElmer, MA, USA), with nonspecific binding measured in the presence of 10 μM diazepam.
All binding assays were performed for 1 h at 4° C. in assay buffer. The total assay volume was 0.5 ml containing 0.2 mg/ml protein for α5 and 0.4 mg/ml for α1, α2, and α3 containing GABAAR membranes. Incubations were terminated by filtration through GF/B filters using a 24-Cell Harvestor (Brandel, Gaithersburg, Md., USA) followed by 3 washes with ice-cold assay buffer. Filters were transferred to scintillation vials, 5 ml scintillation liquid added, vortex-mixed and kept in dark. Next day, radioactivity was obtained using a scintillation counter (Beckman Coulter, Brea, Calif., USA). All assays were performed in triplicate.
Data Analyses: Saturation and inhibition curves were obtained using GraphPad Prism software (GraphPad Software, Inc., CA, USA).

[1] = GABA α5 Binding Ki Values, inhibition of [3H]Ro15-1788 binding, reported as ranges

T1 sequence (P31644 32-462): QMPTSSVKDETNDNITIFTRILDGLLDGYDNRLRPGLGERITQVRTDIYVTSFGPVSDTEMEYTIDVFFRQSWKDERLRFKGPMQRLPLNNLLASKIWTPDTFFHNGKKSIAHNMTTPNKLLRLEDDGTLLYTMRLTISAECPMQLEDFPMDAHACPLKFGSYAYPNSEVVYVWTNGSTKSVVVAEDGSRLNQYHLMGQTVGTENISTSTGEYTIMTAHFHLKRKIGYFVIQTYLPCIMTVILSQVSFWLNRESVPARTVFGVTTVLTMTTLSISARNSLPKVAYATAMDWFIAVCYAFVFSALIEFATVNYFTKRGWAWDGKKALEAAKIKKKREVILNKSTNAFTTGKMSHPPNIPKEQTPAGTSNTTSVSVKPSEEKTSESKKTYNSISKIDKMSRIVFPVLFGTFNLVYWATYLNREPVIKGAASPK
T1 sequence (P28472 26-473 partner): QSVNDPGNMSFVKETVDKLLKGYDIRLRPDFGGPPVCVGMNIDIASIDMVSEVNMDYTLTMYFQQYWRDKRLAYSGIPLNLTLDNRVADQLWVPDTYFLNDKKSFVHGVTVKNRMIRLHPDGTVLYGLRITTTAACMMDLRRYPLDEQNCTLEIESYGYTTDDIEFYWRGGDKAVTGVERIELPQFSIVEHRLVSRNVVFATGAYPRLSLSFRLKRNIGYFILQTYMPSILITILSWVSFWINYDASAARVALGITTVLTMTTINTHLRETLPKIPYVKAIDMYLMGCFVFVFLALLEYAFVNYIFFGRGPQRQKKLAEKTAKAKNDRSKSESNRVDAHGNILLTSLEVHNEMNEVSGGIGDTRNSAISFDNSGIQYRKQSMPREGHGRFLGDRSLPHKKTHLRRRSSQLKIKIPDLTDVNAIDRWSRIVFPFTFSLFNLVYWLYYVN
T1 sequence (P18507 40-475): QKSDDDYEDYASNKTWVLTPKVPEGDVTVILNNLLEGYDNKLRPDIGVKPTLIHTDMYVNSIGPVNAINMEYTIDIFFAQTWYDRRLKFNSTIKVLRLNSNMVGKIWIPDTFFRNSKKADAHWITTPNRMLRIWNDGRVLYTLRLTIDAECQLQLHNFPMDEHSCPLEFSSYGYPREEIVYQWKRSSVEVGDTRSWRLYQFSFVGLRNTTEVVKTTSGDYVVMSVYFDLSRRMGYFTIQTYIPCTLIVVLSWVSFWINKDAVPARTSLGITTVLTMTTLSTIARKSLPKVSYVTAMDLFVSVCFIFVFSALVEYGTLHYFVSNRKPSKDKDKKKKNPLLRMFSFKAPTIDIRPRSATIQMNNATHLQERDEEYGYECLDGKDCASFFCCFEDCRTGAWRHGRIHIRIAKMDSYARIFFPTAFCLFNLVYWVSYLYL

Structure (SMILES) | Ki [1] | other results
Cc1nnn2c1Cc1c(C(N)=O)ncn1-c1ccccc1-2 [Compound 117] | > 1000 nM | 
COc1ccc2c(c1)-c1nnc(COc3ccccc3)n1Cc1c(C#N)ncn1-2 [Compound 122] | < 100 nM | 
COc1ccc2c(c1)-c1nnc(COc3ccc(F)cc3)n1Cc1c(-c3noc(C)n3)ncn1-2 [Compound 163] | < 100 nM | 
CC(C)OCc1nnc2n1Cc1c(C3=N[C@H](c4ccccc4)CO3)ncn1-c1ccc(Cl)cc1-2 [Compound 268] | < 100 nM | 
Cc1nnn2c1Cc1c(C3=N[C@@H](c4ccccc4F)CO3)ncn1-c1ccc(Cl)cc1-2 [Compound 378] | 100 to 1000 nM | 
COc1ccc2c(c1)-n1nncc1Cc1c(C3=N[C@@H](C)CO3)ncn1-2 [Compound 292] | 100 to 1000 nM | 
CCOC(=O)c1ncn2c1Cn1c(Oc3cccc(OC)c3)nnc1-c1cc(OC)ccc1-2 [Compound 105] | < 100 nM | 
CNC(=O)c1nnn2c1Cc1c(Br)ncn1-c1ccc(OC)cc1-2 [Compound 247] | 100 to 1000 nM | 
CCOC(=O)c1ncn2c1Cn1c(COc3ccc(F)cc3)nnc1-c1cc(OC)ccc1-2 [Compound 56] | < 100 nM | 
COc1ccc2c(c1)-c1nnc(COc3cccc(F)c3)n1Cc1c(C#N)ncn1-2 [Compound 196] | < 100 nM | 
COCc1nnc2n1Cc1c(C#CCc3cccc(Cl)c3)ncn1-c1ccc(Cl)cc1-2 [Compound 422] | < 100 nM | 
CCOC(=O)c1ncn2c1Cc1c(CN(C)Cc3ccccc3)nnn1-c1cc(OC)ccc1-2 [Compound 51] | < 100 nM | 
COCc1nnc2n1Cc1c(C3=N[C@@H](C)CO3)ncn1-c1ccc(Cl)cc1-2 [Compound 283] | 100 to 1000 nM | 
COc1ccc2c(c1)-c1nnc(COCc3cccnc3)n1Cc1c(-c3noc(C(C)C)n3)ncn1-2 [Compound 203] | < 100 nM | 
CC(C)c1nc(-c2ncn3c2Cc2c(Cc4ccc(F)cc4)nnn2-c2ccc(F)cc2-3)no1 [Compound 231] | > 1000 nM | 
COCc1nnc2n1Cc1c(C3=N[C@H](C)CO3)ncn1-c1ccc(Cl)cc1-2 [Compound 282] | < 100 nM | 
COc1ccc2c(c1)-n1nncc1Cc1c(C3=N[C@@H](C(C)C)CO3)ncn1-2 [Compound 382] | 100 to 1000 nM | 
COCc1nnc2n1Cc1c(C3=N[C@@H](CC4CCCCC4)CO3)ncn1-c1ccc(Cl)cc1-2 [Compound 266] | 100 to 1000 nM | 
CCOC(=O)c1ncn2c1Cc1c(CN3CCCC3)nnn1-c1cc(OC)ccc1-2 [Compound 48] | < 100 nM | 
CC(C)OC(=O)c1ncn2c1Cn1c(COc3ccccc3)nnc1-c1cc(F)ccc1-2 [Compound 156] | < 100 nM | 

Structure (SMILES) | Ki [1] | other results
C=Cc1ncn2c1Cc1c(Cc3ccccc3)nnn1-c1cc(OC)ccc1-2 [Compound 220] | 100 to 1000 nM | 
C#Cc1ncn2c1Cn1c(COc3cccnc3)nnc1-c1cc(OC)ccc1-2 [Compound 241] | < 100 nM | 
CC(C)OCc1nnc2n1Cc1c(C3=N[C@@H](C)CO3)ncn1-c1ccc(Cl)cc1-2 [Compound 287] | 100 to 1000 nM | 
CC#Cc1ncn2c1Cn1c(COCc3ccccc3)nnc1-c1cc(Cl)ccc1-2 [Compound 352] | 100 to 1000 nM | 
COCc1nnc2n1Cc1c(C3=N[C@@H](c4cccc5ccccc45)CO3)ncn1-c1ccc(Cl)cc1-2 [Compound 338] | < 100 nM | 
COc1ccc2c(c1)-c1nnc(COc3ccccc3)n1Cc1c(-c3nc(C)no3)ncn1-2 [Compound 118] | < 100 nM | 
N#Cc1ncn2c1Cn1c(COc3ccccc3)nnc1-c1cc(Cl)ccc1-2 [Compound 197] | < 100 nM | 
Cc1nnn2c1Cc1c(C#N)ncn1-c1ccc(F)cc1-2 [Compound 116] | > 1000 nM | 
Cc1coc(-c2ncn3c2Cn2c(COCC(F)(F)F)nnc2-c2cc(Cl)ccc2-3)n1 [Compound 312] | 100 to 1000 nM | 
COc1ccc2c(c1)-c1nnc(COc3ccccc3F)n1Cc1c(-c3noc(C(C)C)n3)ncn1-2 [Compound 174] | < 100 nM | 
CCc1nc(-c2ncn3c2Cn2c(COc4ccccc4)nnc2-c2cc(F)ccc2-3)no1 [Compound 158] | < 100 nM | 
CCOC(=O)c1ncn2c1Cc1c(Cc3ccccc3)nnn1-c1cc(C)ccc1-2 [Compound 101] | < 100 nM | 
COCc1nnc2n1Cc1c(COc3ccccc3F)ncn1-c1ccc(Cl)cc1-2 [Compound 433] |  | Ki (inhibition of [3H]Ro15-1788 binding, reported as ranges): > 1000 nM
C#Cc1ncn2c1Cn1c(COC(C)C)nnc1-c1cc(Cl)ccc1-2 [Compound 288] | < 100 nM | 
COc1ccc2c(c1)-n1nncc1Cc1c(-c3nc(-c4cccc(C(F)(F)F)c4)co3)ncn1-2 [Compound 389] | > 1000 nM | 
COCc1nnn2c1Cc1c(C3=N[C@@H](C)CO3)ncn1-c1ccc(OC)cc1-2 [Compound 298] | 100 to 1000 nM | 
Fc1ccc2c(c1)-c1nnc(COc3ccccc3)n1Cc1c(-c3noc(C(F)(F)F)n3)ncn1-2 [Compound 159] | < 100 nM | 
Clc1ccc2c(c1)-n1nncc1Cc1c(C#Cc3ccccn3)ncn1-2 [Compound 401] | < 100 nM | 
COc1ccc2c(c1)-c1nnc(COc3ccccc3)n1Cc1c(C(F)F)ncn1-2 [Compound 124] | 100 to 1000 nM | 
Cc1nc(-c2ncn3c2Cc2c(C)nnn2-c2ccccc2-3)no1 [Compound 127] | < 100 nM | 

Structure (SMILES) | Ki [1] | other results
Cc1nnn2c1Cc1c(-c3noc(C(C)(C)C)n3)ncn1-c1ccc(F)cc1-2 [Compound 160] | < 100 nM | 
C#Cc1ccc2c(c1)-c1nnc(COC)n1Cc1c(C3=N[C@@H](C(C)C)CO3)ncn1-2 [Compound 384] | 100 to 1000 nM | 
COc1ccc2c(c1)-n1nncc1Cc1c(C#CCc3ccccc3OC(F)(F)F)ncn1-2 [Compound 420] | < 100 nM | 
O=C(C#Cc1ncn2c1Cc1cnnn1-c1cc(Cl)ccc1-2)c1ccccc1 [Compound 448] | < 100 nM | 
COCc1nnc2n1Cc1c(Br)ncn1-c1ccc(Cl)cc1-2 [Compound 217] | < 100 nM | 
CCOC(=O)c1ncn2c1Cc1c(Cc3ccc(Cl)cc3)nnn1-c1ccccc1-2 [Compound 47] | < 100 nM | 
FC(F)(F)c1ccc(-c2coc(-c3ncn4c3Cc3cnnn3-c3cc(Cl)ccc3-4)n2)cc1 [Compound 386] | > 1000 nM | 
COc1ccc2c(c1)-n1nnc(C(=O)N3CCCC3)c1Cc1c(Br)ncn1-2 [Compound 248] | 100 to 1000 nM | 
CCOCc1nnc2n1Cc1c(-c3noc(C(C)C)n3)ncn1-c1ccc(F)cc1-2 [Compound 187] | < 100 nM | 
COCc1nnc2n1Cc1c(-c3nc(C)no3)ncn1-c1ccc(OC)cc1-2 [Compound 128] | < 100 nM | 
COCc1nnn2c1Cc1c(C3=N[C@@H](C)CO3)ncn1-c1ccc(Cl)cc1-2 [Compound 300] | 100 to 1000 nM | 
COc1ccc2c(c1)-n1nncc1Cc1c(C#CCc3cccc(F)c3)ncn1-2 [Compound 419] | < 100 nM | 
COCc1nnc2n1Cc1c(-c3nc(-c4ccccc4)co3)ncn1-c1ccc(Cl)cc1-2 [Compound 245] | < 100 nM | 
CC(C)OCc1nnc2n1Cc1c(C3=NCCO3)ncn1-c1ccc(Cl)cc1-2 [Compound 316] | 100 to 1000 nM | 
COc1ccc2c(c1)-n1nnc(CN3CCCC3)c1Cc1c(-c3nc(C(C)C)no3)ncn1-2 [Compound 170] | 100 to 1000 nM | 
C#Cc1ncn2c1Cc1c(C)nnn1-c1ccccc1-2 [Compound 161] | < 100 nM | 
C#Cc1ncn2c1Cn1c(COC)nnc1-c1cc(OC)ccc1-2 [Compound 328, 5-ethynyl-15-methoxy-9-(methoxymethyl)-2,4,8,10,11-pentaazatetracyclo[11.4.0.0^2,^6.0^8,^12]heptadeca-1(17),3,5,9,11,13,15-heptaene] | < 100 nM | 
COc1ccc2c(c1)-c1nnc(COc3ccccc3)n1Cc1c(Cc3ccccc3)ncn1-2 [Compound 142] |  | Ki: > 1000 nM
